Assay results taken from patent publication US20200172529A1, “Chemical Compound, Pharmaceutical Composition Thereof, and Use and Application Thereof” (Beijing Hanmi Pharm. Co., Ltd., priority 2017, published 2020).

Legend:
Type in all cases: biochemical
TYK2 kinase = biological target: T1, TYK2 kinase (Homo sapiens, UniProt P29597); assay: Inhibition assay of TYK2 kinase activity (ADP-Glo Kinase Assay)
T1 construct: purchased Life Technologies PR8440C
Description: Determination of inhibition of TYK2 kinase activity by the examples compounds disclosed herein
Inhibition assay of TYK2 kinase activity: the method of ADP-Glo™ Kinase Assay (Promega, V9102) was used to determine the inhibitory activity of the test compounds against TYK2 kinase.
TYK2 kinase (purchased from Life Technologies, article number: PR8440C) was diluted to the 2-fold final concentration (0.8 ng/mL) using reaction buffer (40 mM Tris-HCl, pH 7.5; 20 mM MgCl2; 0.1 mg/mL BSA; 1 mM DTT), and added to a 384-well plate at 5 μL/well. The test drugs were subjected to a 10-fold gradient dilution, from 10 μM, to obtain 6 concentrations, and added to experimental wells of the 384-well plate at 2.5 μL/well. 5 μL of water and 2.5 μL of buffer were added to negative control wells. 5 μL of TYK2 and 2.5 μL of water were added to positive control wells. After incubating for 10 minutes at room temperature, the substrate ATP and polyE4Y1 (Sigma, P0275) were added at 2.5 μL/well, mixed well, and then reacted at room temperature for 60 minutes. After the reaction was completed, the kinase activity was detected according to the instruction of the kit. First, the ADP-Glo reaction reagent was added at 10 μL/well, mixed well, and reacted at room temperature for 40 minutes. The kinase detection reagent was then added at 20 μL/well, mixed well, and then reacted at room temperature for 30 minutes. The detection was then performed and the IC50s of test drugs were calculated.

JAK1 kinase = JAK1 kinase (Homo sapiens, UniProt P23458); assay: Inhibition assay of JAK1 kinase activity (ADP-Glo Kinase Assay)
JAK1 kinase, sequence (P23458 whole entry): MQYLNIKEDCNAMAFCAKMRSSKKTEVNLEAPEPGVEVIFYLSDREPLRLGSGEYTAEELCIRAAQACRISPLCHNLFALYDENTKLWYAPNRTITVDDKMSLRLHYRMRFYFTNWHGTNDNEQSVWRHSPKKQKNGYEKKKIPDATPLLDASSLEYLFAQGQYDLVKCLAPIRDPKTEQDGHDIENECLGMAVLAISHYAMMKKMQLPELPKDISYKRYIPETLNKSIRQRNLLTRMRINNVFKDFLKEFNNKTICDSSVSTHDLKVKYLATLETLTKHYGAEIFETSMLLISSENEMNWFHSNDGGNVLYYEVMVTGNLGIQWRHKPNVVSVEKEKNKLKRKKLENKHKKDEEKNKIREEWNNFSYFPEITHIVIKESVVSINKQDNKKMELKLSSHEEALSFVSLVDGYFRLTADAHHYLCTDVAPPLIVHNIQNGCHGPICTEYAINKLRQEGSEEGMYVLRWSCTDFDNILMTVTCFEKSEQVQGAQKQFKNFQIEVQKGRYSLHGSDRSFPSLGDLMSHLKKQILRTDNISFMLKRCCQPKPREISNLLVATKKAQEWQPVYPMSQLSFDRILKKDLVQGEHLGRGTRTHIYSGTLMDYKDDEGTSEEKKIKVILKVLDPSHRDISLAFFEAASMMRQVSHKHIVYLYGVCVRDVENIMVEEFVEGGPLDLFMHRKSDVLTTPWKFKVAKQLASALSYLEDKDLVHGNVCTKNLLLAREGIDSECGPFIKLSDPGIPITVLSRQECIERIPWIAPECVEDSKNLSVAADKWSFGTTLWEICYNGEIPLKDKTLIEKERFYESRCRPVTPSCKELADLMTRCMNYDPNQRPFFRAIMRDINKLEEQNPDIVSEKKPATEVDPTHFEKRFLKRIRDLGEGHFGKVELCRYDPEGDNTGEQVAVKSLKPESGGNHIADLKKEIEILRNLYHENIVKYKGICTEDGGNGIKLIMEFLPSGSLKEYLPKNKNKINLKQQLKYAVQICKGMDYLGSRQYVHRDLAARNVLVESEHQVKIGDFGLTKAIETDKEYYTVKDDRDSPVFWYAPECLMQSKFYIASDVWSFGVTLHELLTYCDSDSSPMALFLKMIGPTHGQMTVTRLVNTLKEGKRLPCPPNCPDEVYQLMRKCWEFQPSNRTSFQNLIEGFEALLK
Excerpt: Inhibition assay of JAK1 kinase activity: the method in ADP-Glo™ Kinase Assay (Promega, V9102) was used to determine the inhibitory activity of the test compounds against JAK1 kinase.

JAK2 kinase = JAK2 kinase (Homo sapiens, UniProt O60674); assay: Inhibition assay of JAK2 kinase activity (ADP-Glo Kinase Assay)
JAK2 kinase, sequence (O60674 whole entry): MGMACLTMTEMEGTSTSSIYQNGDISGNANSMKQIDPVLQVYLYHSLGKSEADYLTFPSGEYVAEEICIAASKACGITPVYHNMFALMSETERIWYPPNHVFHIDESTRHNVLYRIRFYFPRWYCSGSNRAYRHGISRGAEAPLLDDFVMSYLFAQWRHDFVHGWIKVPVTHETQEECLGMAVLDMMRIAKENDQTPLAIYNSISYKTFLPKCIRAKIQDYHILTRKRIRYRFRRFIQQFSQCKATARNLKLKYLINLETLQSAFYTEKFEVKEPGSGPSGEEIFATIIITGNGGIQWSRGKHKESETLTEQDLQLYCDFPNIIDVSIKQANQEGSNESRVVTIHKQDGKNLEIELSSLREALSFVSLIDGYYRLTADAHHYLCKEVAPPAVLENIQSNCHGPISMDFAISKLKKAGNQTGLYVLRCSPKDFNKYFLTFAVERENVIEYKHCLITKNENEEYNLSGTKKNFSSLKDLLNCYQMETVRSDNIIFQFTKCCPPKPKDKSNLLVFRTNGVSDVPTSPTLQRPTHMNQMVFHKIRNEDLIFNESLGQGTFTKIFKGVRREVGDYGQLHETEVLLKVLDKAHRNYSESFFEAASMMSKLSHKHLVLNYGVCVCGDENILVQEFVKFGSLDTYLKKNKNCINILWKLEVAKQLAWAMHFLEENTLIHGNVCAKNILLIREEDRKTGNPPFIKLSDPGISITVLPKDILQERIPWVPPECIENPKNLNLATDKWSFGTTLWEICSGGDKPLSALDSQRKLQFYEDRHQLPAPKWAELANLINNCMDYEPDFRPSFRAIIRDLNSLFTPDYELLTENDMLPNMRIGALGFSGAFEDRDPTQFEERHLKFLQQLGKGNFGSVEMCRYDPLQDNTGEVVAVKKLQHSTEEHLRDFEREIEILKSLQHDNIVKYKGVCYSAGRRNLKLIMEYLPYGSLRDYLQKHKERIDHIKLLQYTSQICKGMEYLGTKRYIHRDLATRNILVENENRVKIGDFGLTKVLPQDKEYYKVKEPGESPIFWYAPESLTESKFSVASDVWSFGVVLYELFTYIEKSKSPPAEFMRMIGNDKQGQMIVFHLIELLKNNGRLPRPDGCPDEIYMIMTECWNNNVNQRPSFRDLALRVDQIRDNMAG
Excerpt: Inhibition assay of JAK2 kinase activity: the method in ADP-Glo™ Kinase Assay (Promega, V9102) was used to determine the inhibitory activity of the test compounds against JAK2 kinase.

T1 sequence (P29597 whole entry): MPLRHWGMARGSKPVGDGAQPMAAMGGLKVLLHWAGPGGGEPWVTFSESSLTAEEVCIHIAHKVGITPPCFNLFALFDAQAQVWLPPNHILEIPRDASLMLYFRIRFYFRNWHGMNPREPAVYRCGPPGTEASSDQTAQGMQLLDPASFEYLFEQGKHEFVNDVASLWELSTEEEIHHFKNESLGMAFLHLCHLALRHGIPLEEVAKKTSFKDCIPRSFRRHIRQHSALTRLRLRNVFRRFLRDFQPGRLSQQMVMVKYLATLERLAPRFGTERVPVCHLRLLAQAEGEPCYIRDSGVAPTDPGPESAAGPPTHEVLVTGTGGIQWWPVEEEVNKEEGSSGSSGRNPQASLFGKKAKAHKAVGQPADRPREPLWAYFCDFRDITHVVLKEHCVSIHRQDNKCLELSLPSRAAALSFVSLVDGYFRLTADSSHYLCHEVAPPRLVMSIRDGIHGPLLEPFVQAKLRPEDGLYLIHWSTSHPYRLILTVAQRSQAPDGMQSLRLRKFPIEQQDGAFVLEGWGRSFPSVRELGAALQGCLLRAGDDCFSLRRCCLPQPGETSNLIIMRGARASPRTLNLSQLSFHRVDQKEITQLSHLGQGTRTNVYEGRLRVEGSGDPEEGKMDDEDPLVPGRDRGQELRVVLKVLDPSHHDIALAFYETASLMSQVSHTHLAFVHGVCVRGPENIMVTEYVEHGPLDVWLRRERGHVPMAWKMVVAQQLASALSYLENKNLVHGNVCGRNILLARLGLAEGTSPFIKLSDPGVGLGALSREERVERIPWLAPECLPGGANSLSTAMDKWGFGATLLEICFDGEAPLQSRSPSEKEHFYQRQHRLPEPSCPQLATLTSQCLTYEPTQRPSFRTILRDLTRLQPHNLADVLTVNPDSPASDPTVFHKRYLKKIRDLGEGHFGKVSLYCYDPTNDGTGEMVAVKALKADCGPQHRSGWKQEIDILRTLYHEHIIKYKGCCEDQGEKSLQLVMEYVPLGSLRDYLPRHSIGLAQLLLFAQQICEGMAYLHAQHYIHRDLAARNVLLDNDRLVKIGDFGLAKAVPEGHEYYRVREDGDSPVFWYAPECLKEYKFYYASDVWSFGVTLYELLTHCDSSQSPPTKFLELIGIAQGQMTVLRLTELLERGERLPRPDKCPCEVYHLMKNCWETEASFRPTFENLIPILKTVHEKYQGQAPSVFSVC

Row | IC50 (TYK2 kinase) | IC50 (JAK1 kinase) | IC50 (JAK2 kinase) | Structure (SMILES)
1 | 10 to 100 nM | 10 to 100 nM | 10 to 100 nM | CCCO[C@@H]1CNc2cc(Nc3ncc(C(N)=O)c(NC4CC4)n3)ccc2OC1 [Example 84, 4-(cyclopropylamino)-2-(((R)-2,3,4,5-tetrahydro-3-propoxybenzo[b][1,4]oxazepin-7-yl)amino)pyrimidin-5-carboxamide]
2 | < 10 nM | 10 to 100 nM | 10 to 100 nM | NC(=O)c1cnc(Nc2ccc3c(c2)NCC(O)CO3)nc1NCC(F)(F)F (stereo not drawn) [Example 7, 4-((2,2,2-trifluoroethyl)amino)-2-((3-hydroxy-2,3,4,5-tetrahydro-benzo[b][1,4]oxazepin-7-yl)amino)pyrimidin-5-carboxamide]
3 | < 10 nM | < 10 nM | < 10 nM | NC(=O)c1cnc(Nc2ccc3c(c2)NC[C@H](O)CO3)nc1NC12CC3CC(C1)C(O)C(C3)C2 (stereo partly drawn) [Example 49, 4-((4-hydroxyadamantan-1-yl)amino)-2-(((S)-2,3,4,5-tetrahydro-3-hydroxybenzo[b][1,4]oxazepin-7-yl)amino)pyrimidin-5-carboxamide]
4 | < 10 nM | < 10 nM | 10 to 100 nM | CO[C@H]1CNc2cc(Nc3ncc(C(N)=O)c(NC4CC4)n3)ccc2OC1 [Example 27, (S)-4-(cyclopropylamino)-2-((3-methoxy-2,3,45-tetrahydro-benzo[b][1,4]oxazepin-7-yl)amino)pyrimidin-5-carboxamide]
5 | < 10 nM | < 10 nM | < 10 nM | NC(=O)c1cnc(Nc2ccc3c(c2)NC[C@H](O)CO3)nc1NC1CC1 [Example 26, (S)-4-(cyclopropylamino)-2-((3-hydroxy-2,3,4,5-tetrahydro-benzo[b][1,4]oxazepin-7-yl)amino)pyrimidin-5-carboxamide]
6 | < 10 nM | < 10 nM | 10 to 100 nM | NC(=O)c1cnc(Nc2ccc3c(c2)NCC(O)CO3)nc1NCc1ccccc1 (stereo not drawn) [Example 9, 4-(benzylamino)-2-((3-hydroxy-2,3,4,5-tetrahydro-benzo[b][1,4]oxazepin-7-yl)amino)pyrimidin-5-carboxamide]
7 | < 10 nM | 10 to 100 nM |  | CNc1nc(Nc2ccc3c(c2)NC[C@H](O)CO3)ncc1C(N)=O [Example 47, 4-(methylamino)-2-(((S)-2,3,4,5-tetrahydro-3-hydroxybenzo[b][1,4]oxazepin-7-yl)amino)pyrimidin-5-carboxamide]
8 | < 10 nM | < 10 nM | < 10 nM | NC(=O)c1cnc(Nc2ccc3c(c2)NC[C@H](O)CO3)nc1NCCCCO [Example 48, 4-((4-hydroxybutyl)amino)-2-(((S)-2,3,4,5-tetrahydro-3-hydroxybenzo[b][1,4]oxazepin-7-yl)amino)pyrimidin-5-carboxamide]
9 | < 10 nM | 10 to 100 nM |  | NC(=O)c1cnc(Nc2ccc3c(c2)NCC(O)CO3)nc1NC1CCOCC1 (stereo not drawn) [Example 6, 4-((tetrahydropyran-4-yl)amino)-2-((3-hydroxy-2,3,4,5-tetrahydro-benzo[b][1,4]oxazepin-7-yl)amino)pyrimidin-5-carboxamide]
10 | < 10 nM | < 10 nM |  | NC(=O)c1cnc(Nc2ccc3c(c2)NCC(O)CO3)nc1NC1CCCC1 (stereo not drawn) [Example 3, 4-(cyclopentylamino)-2-((3-hydroxy-2,3,4,5-tetrahydro-benzo[b][1,4]oxazepin-7-yl)amino)pyrimidin-5-carboxamide]
11 | 10 to 100 nM | 10 to 100 nM |  | NC(=O)c1cnc(Nc2ccc3c(c2)NCC(O)CO3)nc1NC12CC3CC(CC(C3)C1)C2 (stereo not drawn) [Example 5, 4-((adamantanyl-1-yl)amino)-2-((3-hydroxy-2,3,4,5-tetrahydro-benzo[b][1,4]oxazepin-7-yl)amino)pyrimidin-5-carboxamide]
12 | 10 to 100 nM | 10 to 100 nM |  | NC(=O)c1cnc(Nc2ccc3c(c2)NC[C@H](O)CO3)nc1NC1CNC1 [Example 58, 4-(azetidin-3-ylamino)-2-(((S)-2,3,4,5-tetrahydro-3-hydroxybenzo[b][1,4]oxazepin-7-yl)amino)pyrimidin-5-carboxamide]
13 | < 10 nM | 10 to 100 nM |  | N#CCC(=O)N1CCC(Nc2nc(Nc3ccc4c(c3)NC[C@H](O)CO4)ncc2C(N)=O)C1 (stereo partly drawn) [Example 42, 4-((1-(2-cyanoacetyl)pyrrolidin-3-yl)amino)-2-(((S)-2,3,4,5-tetrahydro-3-hydroxybenzo[b][1,4]oxazepin-7-yl)amino)pyrimidin-5-carboxamide]
14 | < 10 nM | 10 to 100 nM |  | NC(=O)c1cnc(Nc2ccc3c(c2)NCC(O)CO3)nc1NCc1cccnc1 (stereo not drawn) [Example 14, 4-((pyridin-3-ylmethyl)amino)-2-((3-hydroxy-2,3,4,5-tetrahydro-benzo[b][1,4]oxazepin-7-yl)amino)pyrimidin-5-carboxamide]
15 | < 10 nM | 10 to 100 nM |  | N#CCNc1nc(Nc2ccc3c(c2)NCC(O)CO3)ncc1C(N)=O (stereo not drawn) [Example 8, 4-(cyanomethylamino)-2-((3-hydroxy-2,3,4,5-tetrahydro-benzo[b][1,4]oxazepin-7-yl)amino)pyrimidin-5-carboxamide]
16 | 10 to 100 nM | 10 to 100 nM |  | NC(=O)c1cnc(Nc2ccc3c(c2)NC[C@H](O)CO3)nc1NC12CC3CC(CC(C3)C1)C2 [Example 45, 4-(adamantan-1-ylamino)-2-(((S)-2,3,4,5-tetrahydro-3-hydroxybenzo[bb][1,4]oxazepin-7-yl)amino)pyrimidin-5-carboxamide]
17 | < 10 nM | 10 to 100 nM |  | CC(C)Nc1nc(Nc2ccc3c(c2)NC[C@H](O)CO3)ncc1C(N)=O [Example 30, 4-(isopropylamino)-2-(((S)-2,3,4,5-tetrahydro-3-hydroxybenzo[b][1,4]oxazepin-7-yl)amino)pyrimidin-5-carboxamide]
18 | < 10 nM | 10 to 100 nM |  | COCCCNc1nc(Nc2ccc3c(c2)NC[C@H](O)CO3)ncc1C(N)=O [Example 52, 4-((3-methoxypropyl)amino)-2-(((S)-2,3,4,5-tetrahydro-3-hydroxybenzo[b][1,4]oxazepin-7-yl)amino)pyrimidin-5-carboxamide]
19 | < 10 nM | 10 to 100 nM |  | NC(=O)c1cnc(Nc2ccc3c(c2)NC[C@H](O)CO3)nc1NC1CC(O)C1 (stereo partly drawn) [Example 36, 4-((3-hydroxycyclobutyl)amino)-2-(((S)-2,3,4,5-tetrahydro-3-hydroxybenzo[b][1,4]oxazepin-7-yl)amino)pyrimidin-5-carboxamide]
